From the NIST ThermoML archive (doi:10.1016/j.jct.2005.09.003)

Assay: xn = mol fraction of the nth substance listed
Conditions: Liquid

CCCCCCCl [1-chlorohexane] + CCCCCCCC
mass density [kg/m3]
Conditions	x2 = 0	x2 = 0.1016	x2 = 0.1996	x2 = 0.3153	x2 = 0.3948	x2 = 0.4862	x2 = 0.5938	x2 = 0.6966	x2 = 0.794	x2 = 0.9001
298.15 K, 39620 kPa	–	–	–	–	–	–	–	–	–	741.83
308.15 K, 100 kPa	863.99	843.29	824.06	802.22	787.75	771.63	753.33	736.52	721.15	705.03
308.15 K, 2130 kPa	865.56	845	825.77	803.94	789.46	773.39	755.1	738.36	722.94	706.75
308.15 K, 4150 kPa	867.35	846.81	827.59	805.76	791.31	775.22	756.95	740.19	724.76	708.57
308.15 K, 6180 kPa	869.15	848.61	829.39	807.57	793.1	777.03	758.74	742	726.58	710.37
308.15 K, 8210 kPa	870.9	850.37	831.16	809.34	794.85	778.81	760.51	743.77	728.34	712.11
308.15 K, 10230 kPa	872.61	852.08	832.88	811.05	796.6	780.52	762.22	745.47	730.04	713.8
308.15 K, 11250 kPa	873.47	852.95	833.74	811.91	797.46	781.38	763.1	746.33	730.91	714.66
308.15 K, 12260 kPa	874.3	853.78	834.58	812.74	798.31	782.22	763.93	747.17	731.72	715.48
308.15 K, 14290 kPa	875.96	855.47	836.25	814.43	799.98	783.88	765.62	748.84	733.37	717.14
308.15 K, 16310 kPa	877.59	857.09	837.88	816.06	801.61	785.51	767.22	750.45	735	718.74
308.15 K, 18340 kPa	879.2	858.68	839.49	817.66	803.22	787.12	768.81	752.06	736.58	720.34
308.15 K, 20370 kPa	880.78	860.28	841.08	819.25	804.79	788.69	770.37	753.6	738.13	721.86
308.15 K, 22390 kPa	882.35	861.81	842.63	820.79	806.33	790.24	771.9	755.13	739.65	723.39
308.15 K, 24420 kPa	883.86	863.33	844.15	822.3	807.85	791.75	773.44	756.65	741.13	724.85
308.15 K, 26450 kPa	885.35	864.85	845.66	823.79	809.33	793.23	774.9	758.1	742.61	726.31
308.15 K, 28470 kPa	886.84	866.32	847.13	825.28	810.81	794.7	776.37	759.57	744.06	727.75
308.15 K, 29490 kPa	887.56	867.04	847.84	825.98	811.52	795.4	777.07	760.27	744.75	728.43
308.15 K, 30500 kPa	888.21	867.77	848.57	826.72	812.26	796.13	777.79	760.96	745.47	729.14
308.15 K, 32530 kPa	889.73	869.2	850.02	828.15	813.68	797.54	779.17	762.38	746.85	730.54
308.15 K, 34550 kPa	891.14	870.61	851.41	829.56	815.08	798.95	780.59	763.77	748.23	731.86
308.15 K, 36580 kPa	892.52	872.01	852.79	830.94	816.46	800.32	781.95	765.13	749.58	733.19
308.15 K, 38600 kPa	893.9	873.39	854.16	832.28	817.83	801.66	783.3	766.43	750.88	734.53
308.15 K, 39620 kPa	894.55	874.04	854.82	832.94	818.49	802.33	783.95	767.08	751.54	–
